Cc1cccc(C(=O)O)c1[N+](=O)[O-]
solubility (mole fraction)
Details | in 1,4-dioxane | in NMP | in acetone | in acetonitrile | in ethanol | in ethyl acetate | in isopropanol | in methanol | in n-propanol
283.15 K | – | 0.0128 | 0.0253 | 0.00464 | 0.0103 | 0.00907 | 0.00877 | 0.0097 | 0.00792
285.65 K | 0.0281 | 0.0141 | 0.0265 | 0.00501 | 0.0111 | 0.00965 | 0.00946 | 0.0104 | 0.00845
288.15 K | 0.0303 | 0.0154 | 0.0277 | 0.00543 | 0.012 | 0.0102 | 0.0102 | 0.0112 | 0.00895
290.65 K | 0.0324 | 0.0168 | 0.0291 | 0.00588 | 0.013 | 0.0108 | 0.011 | 0.012 | 0.00955
293.15 K | 0.0346 | 0.0184 | 0.0305 | 0.00633 | 0.014 | 0.0115 | 0.0118 | 0.0129 | 0.0102
295.65 K | 0.0371 | 0.0201 | 0.0318 | 0.00684 | 0.0152 | 0.0121 | 0.0126 | 0.0138 | 0.0109
298.15 K | 0.0396 | 0.0218 | 0.0333 | 0.00737 | 0.0165 | 0.0128 | 0.0136 | 0.0149 | 0.0116
300.65 K | 0.0424 | 0.0234 | 0.0347 | 0.00788 | 0.0179 | 0.0136 | 0.0145 | 0.0159 | 0.0124
303.15 K | 0.0452 | 0.0254 | 0.0364 | 0.00846 | 0.0193 | 0.0144 | 0.0153 | 0.0171 | 0.0133
305.65 K | 0.0483 | 0.0273 | 0.0379 | 0.00915 | 0.0207 | 0.0151 | 0.0163 | 0.0183 | 0.0141
308.15 K | 0.0512 | 0.0296 | 0.0396 | 0.00984 | 0.0223 | 0.016 | 0.0175 | 0.0196 | 0.0151
310.65 K | 0.0543 | 0.032 | 0.0414 | 0.0106 | 0.0238 | 0.017 | 0.0186 | 0.0209 | 0.016
313.15 K | 0.0577 | 0.0345 | 0.0432 | 0.0113 | 0.0257 | 0.018 | 0.0198 | 0.0223 | 0.0169
315.65 K | 0.0609 | 0.0372 | 0.045 | 0.0121 | 0.0276 | 0.019 | 0.021 | 0.0237 | 0.0178
318.15 K | 0.0646 | 0.0405 | 0.0466 | 0.0128 | 0.0296 | 0.02 | 0.0224 | 0.0252 | 0.0188
